What all share (test): growth of human tumour cells (NCI), 48 h
In assay [1] the test system is IGROV-1.
Assay [2] deals with RXF 393.
In assay [3] the test system is UACC-257.
Assay [4] concerns OVCAR-5.
In assay [5] the test system is U-251.
The subject of assay [6] is CCRF-CEM.
Assay [7] concerns SF-539.
The subject of assay [8] is EKVX.
The test system of assay [9] is 786-0.
Assay [10] deals with HL-60.
Assay [11] has as its system HOP-92.
Assay [12] deals with HCC 2998.
For assay [13], the system named is UO-31.
Assay [14] relates to K562.
Assay [15] has as its system COLO 205.
Assay [16] has as its system CAKI-1.
Assay [17] concerns HOP-62.
The subject of assay [18] is SR.

The values below come from ChEMBL document CHEMBL1201862, “PubChem BioAssay data set” (2004).

SMILES strings stand for the structures.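 1) Cells in 96-well plates. 2) Compound, 48 h, 5 concentrations. 3) Linear interpolation between surrounding doses. 4) Unreached endpoint = highest concentration. Abbreviation: GI50, concentration required for 50% inhibition of growth.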 Active and inactive are the calls of the source. Rule as the data show it: active = GI50 up to about 1.1 µM and inactive = higher. Where only a bound is given, the exact number is not on record here.

With `O=c1ccc(=O)c2c(=O)c3ccccc3c(=O)c1=2`, the GI50 in [1] is > 100 µM (inactive); in assay [2], 48.3 µM (inactive); in [3], 30.8 µM (inactive); in [4], > 100 µM (inactive); in [5], 43.6 µM (inactive); in [6], 33 µM (inactive). The GI50 in [7] is 26 µM (inactive); in assay [8], 28.7 µM (inactive); in assay [9], 39.7 µM (inactive); in [10], 17.2 µM (inactive); in assay [11] it was > 100 µM (inactive); in [12] it was 54.7 µM (inactive). Besides, the GI50 in assay [13] was 57.8 µM (inactive); in assay [14], > 100 µM (inactive); in assay [15], 99.3 µM (inactive); in assay [16], 50 µM (inactive); in assay [17] it was 36.6 µM (inactive).
As for `COc1ccc(-c2ccccc2)c(N/N=C2\CCCNC2=O)c1`, the GI50 is > 100 µM (inactive) in [1]; 11 µM (inactive) in assay [2]; > 100 µM (inactive) in assay [3]; > 100 µM (inactive) in assay [4]; > 100 µM (inactive) in assay [5]; 50.7 µM (inactive) in [7]. For the same compound, the GI50 in assay [8] is > 100 µM (inactive); in [9] it was 85.7 µM (inactive); in [11], > 100 µM (inactive); in assay [12], > 100 µM (inactive); in assay [18], 3.55 µM (inactive); in assay [13], > 100 µM (inactive). Besides, the GI50 in assay [15] is > 100 µM (inactive); in [17] it was 19.6 µM (inactive).
For `O=S1(=O)OCCOS(=O)(=O)C1(Br)Br`, the GI50 in assay [3], in assay [6], in [7], in [8], in [9] and in [10] was > 100 µM (inactive) each time. Also, the GI50 in [11] was > 100 µM (inactive); in [12], > 100 µM (inactive); in assay [18] it was > 100 µM (inactive); in assay [13] it was 62.7 µM (inactive); in assay [14], > 100 µM (inactive); in [15], > 100 µM (inactive). Further, the GI50 in assay [16] and in assay [17] was > 100 µM (inactive) throughout.
Take `CC(C)OP(=O)(OC(C)C)/C(=N/Nc1ccc([N+](=O)[O-])cc1)NN`: the GI50 in assay [3] was 24.9 µM (inactive); in assay [4] it was > 100 µM (inactive); in assay [5] it was > 100 µM (inactive); in assay [6], > 100 µM (inactive); in assay [7], > 100 µM (inactive); in assay [8] it was 61.9 µM (inactive). Besides, the GI50 is > 100 µM (inactive) in assay [9]; > 100 µM (inactive) in assay [10]; 65 µM (inactive) in assay [11]; > 100 µM (inactive) in assay [12]; > 100 µM (inactive) in assay [18]; 88.5 µM (inactive) in assay [13]. The GI50 in [14] was 65.9 µM (inactive); in [15], > 100 µM (inactive); in assay [16], > 100 µM (inactive); in [17], > 100 µM (inactive).
On to `[O-]/N=[N+](/[O-])C1CCCCC1=[N+]1CCOCC1` (stereo not given), for which the GI50 in assay [3], in assay [4], in assay [5], in assay [6], in assay [8] and in assay [9] was > 100 µM (inactive) in each case. Besides, the GI50 in [10], in assay [11], in assay [18], in [13], in assay [14] and in assay [15] was > 100 µM (inactive) throughout. The GI50 in [16] and in assay [17] was > 100 µM (inactive) throughout.
On to `O=C1c2ccccc2C(=O)c2nc3c(O)cccc3cc21`, for which the GI50 in assay [1] is 57.8 µM (inactive); in assay [2], > 100 µM (inactive); in assay [3], 10.3 µM (inactive); in assay [4], 89.7 µM (inactive); in [5] it was 20.8 µM (inactive); in [7] it was 28.4 µM (inactive). Moreover, the GI50 is 14.5 µM (inactive) in assay [8]; 6.38 µM (inactive) in assay [9]; 35.9 µM (inactive) in [12]; 3.18 µM (inactive) in [18]; 14.5 µM (inactive) in assay [13]; 5.83 µM (inactive) in assay [14]. The figures for the GI50 in assay [15], in assay [16] and in [17] were 23.8 µM (inactive), 93.1 µM (inactive) and 38.9 µM (inactive), respectively.
`CN1c2ccccc2N(C)C23N(C)c4ccccc4N(C)C12N(C)c1ccccc1N3C` (stereo not given): the GI50 in assay [1], in [2], in assay [3], in assay [4], in assay [5] and in assay [6] was > 100 µM (inactive) throughout. The GI50 was > 100 µM (inactive) in assay [7]; > 100 µM (inactive) in assay [8]; > 100 µM (inactive) in assay [9]; > 100 µM (inactive) in assay [10]; 22.9 µM (inactive) in assay [11]; > 100 µM (inactive) in assay [12]. Besides, the GI50 in assay [13] is > 100 µM (inactive); in assay [14] it was > 100 µM (inactive); in assay [15], > 100 µM (inactive); in [16], > 100 µM (inactive); in assay [17], 87.1 µM (inactive).
With `O=[N+]([O-])c1nccn1COCCF`, the GI50 in assay [1], in assay [3], in assay [4], in assay [5], in [6] and in [7] was > 100 µM (inactive) each time. For the same compound, the GI50 in assay [8], in assay [9], in [10], in assay [11], in [18] and in assay [13] was > 100 µM (inactive) throughout. Also, the GI50 in [14], in assay [15], in [16] and in [17] was > 100 µM (inactive) each time.
Consider `CCOC(=O)C(=O)Nc1c(CC)cccc1C(C)C`, for which the GI50 in [1], in assay [2], in [3], in assay [4], in assay [5] and in assay [7] was > 100 µM (inactive) throughout. The GI50 in assay [8] was > 100 µM (inactive); in assay [9] it was > 100 µM (inactive); in assay [11], > 100 µM (inactive); in [12], > 100 µM (inactive); in assay [18], 0.0151 µM (active); in assay [13] it was > 100 µM (inactive). For the same compound, the GI50 in assay [15], in assay [16] and in [17] was > 100 µM (inactive) throughout.
Regarding `COc1ccc2[nH]c3c(c2c1)[C@H]1CCC(C(C)(C)C)C[C@H]1[C@H]1C(=O)N(c2ccccc2)C(=O)[C@@H]31` (stereo not given in full), the GI50 was > 58.7 µM (inactive) in assay [1]; 9.42 µM (inactive) in [2]; 24.2 µM (inactive) in assay [3]; > 60.1 µM (inactive) in assay [4]; 6.14 µM (inactive) in [5]; 18.9 µM (inactive) in assay [6]. The GI50 in assay [7] was 5.4 µM (inactive); in assay [8] it was 32.7 µM (inactive); in assay [9] it was 3.86 µM (inactive); in assay [10], 39.4 µM (inactive); in assay [11], 6.21 µM (inactive); in assay [12] it was 36 µM (inactive). Also, the GI50 in assay [13] was 24 µM (inactive); in assay [14], 20.6 µM (inactive); in assay [15], 11.4 µM (inactive); in assay [16], 12 µM (inactive); in assay [17], 11.1 µM (inactive).
`O=C(CC1(O)C(=O)Nc2ccc(Br)cc21)c1cccc([N+](=O)[O-])c1` (stereo not given): the GI50 in assay [2] was 23.8 µM (inactive); in assay [3], 27.9 µM (inactive); in assay [4], > 100 µM (inactive); in [5] it was > 100 µM (inactive); in [6], 24.1 µM (inactive); in assay [8], 40.7 µM (inactive). Moreover, the GI50 in assay [9] is 42.7 µM (inactive); in [10] it was 27.7 µM (inactive); in [11] it was 20.8 µM (inactive); in assay [12] it was 65 µM (inactive); in assay [13] it was 64.9 µM (inactive); in assay [14], 20.6 µM (inactive). For the same compound, the GI50 was > 100 µM (inactive) in assay [15], 40.9 µM (inactive) in [16] and 49.5 µM (inactive) in [17].
Consider `COC(=O)C1=C(C[S+]([O-])c2ccccc2[N+](=O)[O-])ON(C)C1c1ccccc1` (stereo not given), for which the GI50 in assay [1] was > 100 µM (inactive); in assay [2], 25.4 µM (inactive); in [3], 35.2 µM (inactive); in assay [4], > 100 µM (inactive); in [5], 34.4 µM (inactive); in [6] it was 10.5 µM (inactive). The GI50 in assay [7] is 27.3 µM (inactive); in [8] it was 55.6 µM (inactive); in assay [9] it was 40.6 µM (inactive); in assay [10], 17.4 µM (inactive); in assay [12], 15.8 µM (inactive); in assay [13], 46.8 µM (inactive). For the same compound, the GI50 in assay [14] was 22.4 µM (inactive); in [15] it was 43.7 µM (inactive); in assay [16], 45.7 µM (inactive); in [17], > 100 µM (inactive).
With `COC(=O)c1cc(CC(C)C)c2c(c1)[nH]c1ccccc12`, the GI50 is > 100 µM (inactive) in assay [1]; > 10 µM (inactive) in assay [3]; > 100 µM (inactive) in assay [4]; > 100 µM (inactive) in assay [5]; > 100 µM (inactive) in assay [6]; > 100 µM (inactive) in assay [7]. Moreover, the GI50 in [8] was > 100 µM (inactive); in [9] it was > 100 µM (inactive); in assay [11], 43.5 µM (inactive); in assay [12], 70.8 µM (inactive); in assay [13], > 100 µM (inactive); in assay [14] it was 15.9 µM (inactive). Besides, the GI50 in assay [15] and in [16] was > 100 µM (inactive) each time.
